How the values were obtained:
[1] = Acute toxicity (LD50) of PAL in female Jcl:ICR mice; settings: mouse, in vivo
Experimental: For oral administration, a suspension of PAL dispersed in an aqueous solution of 0.2% CMC was prepared (a part of PAL was dissolved in the solution) and administered to the animals via a stomach sonde. For intraperitoneal administration, a suspension of PAL dispersed in an aqueous physiological saline solution was prepared (a part of PAL was dissolved in the solution) and injected to the animals with a syringe.

[2] = tested on: IL-1α production in human synovial cells; assay: Inhibition of IL-1α production in human synovial cells; assay type: cell-based; settings: TPA and A 23187 stimulation, 40 hours
Experimental: (§1) Human synovial membrane obtained at an operation was treated with collagenase to obtain synovial cells, which were subcultured several times and inoculated on a 12-well culture dish. On reaching to confluence, the cells were provided to the test described below. The synovial cells produce IL-1 but release only a little amount and accordingly are appropriate cells to study an inhibition or an acceleration of IL-1 intracellular production.
(§2) Each DMSO (dimethylsulfoxide) solution containing one of ACP, PAL and PAC separately in a concentration of 400 times that of the final test and DMSO solution not containing any of the compound as a control, were diluted to 40 times in its volume with a medium containing fetal bovine serum (hereinafter referred to as "FBS") [Ham Medium]. 100 μl of the diluted solution was added to each well and further, 800 μl of the medium [Ham] was added to each well. […] The concentration of TPA and the ionophore in the medium were adjusted so that their final concentration in the well became 0.1 μg/ml and 0.2 μg/ml, respectively and a production of IL-1 was stimulated. Final volume of the liquid (medium) per well was 1 ml/well. After 40 hours of culture, liquid portion was removed from each well and 1 ml of a Ham medium was added to the remaining cells in each well. Freeze-thawing was repeated on the medium containing the cells several times to destroy all the cells in the medium and supernatants containing intracellular substances were obtained by centrifugation. IL-1α and IL-1β in the supernatant were determined by ELISA method using a prescribed enzyme-antibody-complex (manufactured by OHTSUKA SEIYAKU, Co., Ltd.) as intracellular IL-1s. [Refer to ENSHO, vol.

[3] = tested on: IL-1β production in human synovial cells; assay: Inhibition of IL-1β production in human synovial cells; assay type: cell-based; settings: TPA and A 23187 stimulation, 40 hours
Experimental: as §1, §2

[4] = tested on: IL-1 release from human monocyte; assay: Inhibition of IL-1 (IL-1α and IL-1β) release from human monocyte; assay type: cell-based; settings: Homo sapiens, Monocyte, read-out: concentration at which the release of IL-1 is significantly inhibited; LPS 10 μg/ml, 42 hours
Experimental: Monocyte were isolated from human venous blood by density-gradient centrifugation using a Ficoll-paque solution and obtained the cells having a purity of not less than 95% by purifying with a monocyte-separating plate. After dispersing the cells in a medium, RPMI 1640, containing 10% of FBS, the monocyte were inoculated in a culture dish in a ratio of 10^6 cells/3 ml/well and cultured under an atmosphere containing 5% CO2 at 37° C. for 30 minutes. Then, each 15 μl of DMSO solution of one of ACP, PAL and PAC was added to each well (a final DMSO concentration of 0.5%) and 30 minutes later a lipopolysaccharide (hereinafter referred to as "LPS"), a substance to stimulate IL-1 production, was added at a final LPS concentration of 10 μg/ml and they were cultured for 42 hours. Then, the reacted culture medium was recovered and accompanied cells with the medium were separated by centrifugation and obtained the supernatant free of cell. IL-1α and IL-1β released from the cells were measured by ELISA method in the same manner as in item (i) above.

[5] = tested on: IL-1 release from cultured cartilage cells; assay: Inhibition of IL-1 release from cultured cartilage cells; assay type: cell-based, rabbit; settings: 3.3 μM; TPA and A 23187 stimulation, 24 hours
Experimental: Cartilages were aseptically taken out from knee and shoulder joints of young rabbit, treated with a Ham medium containing 0.2% collagenase and separated each other into single cells. After washed two times with a Ham medium containing 10% FBS, the cells were dispersed into the Ham medium containing 10% FBS at a concentration of 10^5 cells/ml. […] After 24 hours of cultivation, IL-1 released into each of the supernatants was measured by a bioassay applying an incorporated amount of ^3 H-thymidine (^3 H-TdR) as an index. […] In the Figure, "Intact" means a case TPA and the ionophore were not added and accordingly no stimulation of IL-1 release was given.

[6] = tested on: proteoglycan (PG) in cultured cartilage cells; assay: Synthesis, release and remaining amount of proteoglycan (PG) in cultured cartilage cells; assay type: cell-based, rat
Experimental: Costal cartilage was aseptically taken out from male SD rats of 4 weeks age, enzymatically treated to separate it into single cells, then inoculated into a 12-well culture dish and cultured under an atmosphere containing 5% CO2 at 37° C. After the chondrocytes had been grown to confluence, 1 to 10 μM of PAL or 10 to 100 μM of PAC was added and three hours later, 2 μCi of Na2^35 SO4 was further added to each well. Twenty four hours later, the synthesis amount in, release amount from and remaining amount of PG in the matrix were determined using amount of ^35 S as an index. […] In the Figures, the PG release in the control was defined as 100%. […] In FIGS. 4(a), 4(b) and 4(c), the released amount of PG means the amount representing the PG degraded in and released from cartilage matrixes, which was calculated on a basis of ^35 S in the culture medium. The remaining amount of PG means the PG not degraded in the matrixes and was also calculated in the same way as above. Sum of the released and the remaining amounts of PG is thought to be a synthesized PG.

[7] = tested on: proteoglycan (PG) release under IL-1α; assay: Proteoglycan (PG) release from prelabelled cultured cartilage matrix with addition of IL-1α; assay type: cell-based; settings: 20 units of IL-1α
Experimental: Further, to a cultured cartilage matrix, in which PG is prelabelled in advance with 1 μCi of Na2^35 SO4, 20 units of IL-1α was added to each group including control group and 10 μM of PAL, 100 μM of PAL or 10 μM of ACP was added to each test group and studied the effect of each compound to the PG release from the cells.

[8] = tested on: leukocyte migration; settings: cited from earlier work
[9] = tested on: granuloma proliferation; settings: cited from earlier work
[10] = tested on: adjuvant arthritis; settings: in vivo; cited from earlier work
[11] = in vivo; cited from earlier work
[12] = Acute toxicity (LD50) of ACP in mice; assay type: in vivo; settings: for LD50 at 168 h: in vivo, male; for LD50: female, 10080 min
Experimental: (§3) For oral administration, a suspension of ACP dispersed in an aqueous solution of 0.5% methylcellulose and 0.4% Tween 80 (nonionic surfactant, manufactured by TOKYO KASEI, Co., Ltd.) was prepared and administered to the animals via a stomach sonde. For subcutaneous administration, a suspension of ACP dispersed in an aqueous physiological saline solution containing 0.5% of carboxymethyl cellulose sodium (hereinafter referred to as "CMC") was prepared and injected to the animals with a syringe.

[13] = Acute toxicity (LD50) of ACP in rats; assay type: in vivo; settings: for LD50 at 168 h: in vivo, male; for LD50: female, 10080 min
Experimental: as §3

[14] = tested on: proteoglycan (PG) release under IL-1α; assay: Proteoglycan (PG) release from prelabelled cultured cartilage matrix with addition of IL-1α; assay type: cell-based; settings: 20 units of IL-1α, compared to control without IL-1; prelabelled 35S as 100%

## O=Cc1ccc(O)c(O)c1 [PAL, 3,4-dihydroxybenzaldehyde]
[1]; ip, intraperitoneal
  LD50 at 168 h: 404 mg/kg
[1]; oral
  LD50 at 168 h: 1500 mg/kg
[2]; 33 μM
  inhibiting activity of IL-1α production: strong inhibiting activity
[3]; 33 μM
  inhibiting activity of IL-1β production: strong inhibiting activity
[4]
  minimal effective concentration: 0.33 µM
[5]
  inhibition of IL-1 release from cartilage cells: inhibit the release of IL-1
[6]; PAL 1 to 10 μM, PAC 10 to 100 μM, 24 hours
  effect on PG synthesis: no effect
[6]; PAL 1 to 10 μM, PAC 10 to 100 μM, control release 100%
  inhibition of PG release: exhibited inhibiting activities on the PG release
[6]; PAL between 1 and 3.3 μM, PAC between 10 and 100 μM
  remaining amount of PG in the matrix: increased in proportion to the adding amount
[7]; PAL 10 μM and 100 μM
  inhibition of PG release under IL-1α: inhibited the release amount proportionally to the amount added
[8]
  suppressing activity of leukocyte migration: suppressing activity
[9]
  suppressing activity of granuloma proliferation: suppressing activity
[10]
  suppressing activity of adjuvant arthritis: suppressing activity
[11]
  toxicity to mammals including human: very low toxic

## CC(=O)Oc1ccc(C(OC(C)=O)OC(C)=O)cc1OC(C)=O [ACP, 3,4-diacetoxybenzylidene diacetate]
[12]; sc, subcutaneous, Jcl:ICR mouse
  LD50 at 168 h: > 4000 mg/kg
[12]; oral, CD-1 mouse
  LD50 at 168 h: > 5000 mg/kg
  LD50: > 5000 mg/kg
[12]; subcutaneous, Jcl:ICR mouse
  LD50: > 4000 mg/kg
[13]; sc, subcutaneous, Jcl:Wistar rat
  LD50 at 168 h: > 4000 mg/kg
[13]; oral, Sprague-Dawley rat
  LD50 at 168 h: > 5000 mg/kg
  LD50: > 5000 mg/kg
[13]; subcutaneous, Jcl:Wistar rat
  LD50: > 4000 mg/kg
[2]; 10 μM
  inhibiting activity of IL-1α production: strong inhibiting activity
[3]; 10 μM
  inhibiting activity of IL-1β production: strong inhibiting activity
[4]
  minimal effective concentration: 0.67 µM
[5]
  inhibition of IL-1 release from cartilage cells: inhibit the release of IL-1
[6]; compared with PAL and PAC, concentration not given
  effect on PG synthesis, release and remaining amount (ACP): effect having similar tendency
[7]; 10 μM
  inhibition of PG release under IL-1α: inhibited the release amount
[8]
  suppressing activity of leukocyte migration: suppressing activity
[9]
  suppressing activity of granuloma proliferation: suppressing activity
[10]
  suppressing activity of adjuvant arthritis: suppressing activity
[11]
  toxicity to mammals including human: very low toxic

B1: IL-1α: interleukin 1 alpha, added to cultured cartilage matrix to increase proteoglycan release (protein, UniProt P01583 113-271, looked up)
Interleukin-1 alpha: SAPFSFLSNVKYNFMRIIKYEFILNDALNQSIIRANDQYLTAAALHNLDEAVKFDMGAYKSSKDDAKITVILRISKTQLYVTAQDEDQPVLLKEMPEIPKTITGSETNLLFFWETHGTKNYFTSVAHPNLFIATKQDYWVCLAGGPPSITDFQILENQA
[14]
  increase of PG release by IL-1α: about 20%

From patent US4997850A, “Treating agent for osteroarthritis” (Kureha Kagaku Kogyo Kabushiki Kaisha, priority 1989, dated 1991)
